Source: US9387209B2, “Histone deacetylases (HDACs) inhibitors” (ANNJI PHARMACEUTICAL CO., LTD., priority 2012, dated 2016)

Columns and labels:
[1] = molecular target: human histone deacetylases (HDAC) 1 (Homo sapiens, UniProt Q13547); assay: HDAC enzymatic assay, HDAC1; assay type: biochemical; conditions: read-out: IC50 HDAC1 (grading)
[2] = molecular target: T1, human histone deacetylases (HDAC) 8 (Homo sapiens, UniProt Q9BY41); assay: HDAC enzymatic assay, HDAC8; assay type: biochemical; conditions: HDAC8; read-out: IC50 HDAC8 (grading)
T1 sequence (Q9BY41 1-377): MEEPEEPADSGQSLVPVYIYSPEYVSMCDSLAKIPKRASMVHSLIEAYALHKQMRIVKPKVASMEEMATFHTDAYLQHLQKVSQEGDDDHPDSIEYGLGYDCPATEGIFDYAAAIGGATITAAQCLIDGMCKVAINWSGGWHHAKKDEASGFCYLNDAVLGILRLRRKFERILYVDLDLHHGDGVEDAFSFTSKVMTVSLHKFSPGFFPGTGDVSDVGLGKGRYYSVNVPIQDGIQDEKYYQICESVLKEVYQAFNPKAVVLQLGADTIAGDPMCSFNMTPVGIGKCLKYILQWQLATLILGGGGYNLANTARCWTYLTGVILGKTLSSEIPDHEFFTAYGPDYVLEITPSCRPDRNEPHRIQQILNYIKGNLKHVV

[3] = molecular target: T2, human histone deacetylases (HDAC) 6 (Homo sapiens, UniProt Q9UBN7); assay: HDAC enzymatic assay, HDAC6; assay type: biochemical; conditions: for IC50: HDAC6, read-out: IC50 HDAC6 (grading); for selective inhibitions on HDAC6: HDAC6 versus other HDACs
T2 sequence (Q9UBN7 1-1215): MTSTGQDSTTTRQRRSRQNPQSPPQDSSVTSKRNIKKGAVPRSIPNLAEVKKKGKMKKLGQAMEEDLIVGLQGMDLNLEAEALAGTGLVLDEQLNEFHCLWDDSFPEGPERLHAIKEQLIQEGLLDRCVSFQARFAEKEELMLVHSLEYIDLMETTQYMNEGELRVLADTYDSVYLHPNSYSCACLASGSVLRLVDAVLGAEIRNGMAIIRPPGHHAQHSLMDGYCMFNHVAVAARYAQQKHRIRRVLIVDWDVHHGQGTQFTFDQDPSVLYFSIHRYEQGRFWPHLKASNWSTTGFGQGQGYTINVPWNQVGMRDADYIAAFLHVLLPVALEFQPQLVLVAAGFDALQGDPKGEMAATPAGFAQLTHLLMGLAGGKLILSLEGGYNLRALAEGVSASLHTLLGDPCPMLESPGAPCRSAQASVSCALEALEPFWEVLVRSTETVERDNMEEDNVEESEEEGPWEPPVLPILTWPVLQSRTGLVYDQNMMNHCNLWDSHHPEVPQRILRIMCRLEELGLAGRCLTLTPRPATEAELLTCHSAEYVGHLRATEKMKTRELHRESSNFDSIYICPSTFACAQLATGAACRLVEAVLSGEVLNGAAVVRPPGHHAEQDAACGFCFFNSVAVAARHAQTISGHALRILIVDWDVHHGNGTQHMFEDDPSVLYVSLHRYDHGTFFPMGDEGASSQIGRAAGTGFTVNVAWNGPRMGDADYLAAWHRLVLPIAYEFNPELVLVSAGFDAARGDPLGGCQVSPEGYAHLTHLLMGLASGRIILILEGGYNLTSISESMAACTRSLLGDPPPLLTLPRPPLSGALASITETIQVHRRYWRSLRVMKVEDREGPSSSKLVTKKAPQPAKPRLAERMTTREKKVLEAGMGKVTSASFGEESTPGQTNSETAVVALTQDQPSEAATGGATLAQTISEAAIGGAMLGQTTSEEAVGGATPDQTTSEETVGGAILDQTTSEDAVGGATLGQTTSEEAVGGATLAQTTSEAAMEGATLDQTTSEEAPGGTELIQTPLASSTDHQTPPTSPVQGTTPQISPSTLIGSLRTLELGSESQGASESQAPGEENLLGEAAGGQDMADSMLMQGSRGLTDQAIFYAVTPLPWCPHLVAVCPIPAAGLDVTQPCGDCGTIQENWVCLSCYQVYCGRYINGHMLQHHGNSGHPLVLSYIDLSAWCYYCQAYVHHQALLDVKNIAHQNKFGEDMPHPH

[4] = molecular target: T3, zinc-mediated β-amyloid aggregation (Homo sapiens, UniProt P05067); assay: Anti-amyloid aggregation assay, BCA; assay type: biochemical; conditions: detected by BCA
T3 sequence (P05067 672-711 limits assumed): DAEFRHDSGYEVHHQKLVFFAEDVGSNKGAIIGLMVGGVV
Method: (§1) Anti-Amyloid Aggregation Assay.
(§2) The effects of compounds on inhibition of β-amyloid aggregation were assayed. The levels of β-amyloid aggregates were determined by thioflavin S, BCA or CR assays (Tables 1). Thioflavin S, and Congo red are for in vitro staining of aggregated β-amyloid. Bicinchoninic acid (BCA) assay determines the total protein level or concentration.

[5] = test system: hippocampus-lesioned mice; assay: Rotarod test in Alzheimer disease model; assay type: in vivo; conditions: daily i.p. 10 mg/kg for 30 days, compared to vehicle
Source text: To test the effect of the compound in improving the learning ability of the animals in Alzheimer disease model, β-aggregates-induced hippocampal lesions were used to generate learning-impaired mice.

[6] = test system: SH-SY5Y cells; assay: Neurite synaptic uptake activity (FM1-43), SH-SY5Y; assay type: cell-based; conditions: Homo sapiens, NGF positive control taken as 100%, read-out: uptake of dye FM1-43 EC50
Method: (§3) Neurite Synaptic Uptake Activity Analysis.
(§4) The effects of compounds on the neuronal synapse uptake of fluorescent indicator FM1-43 were assayed. The uptake of the dye indicated the synaptic function of the neurites. PC 12 and SH-SY5Y cells were used. Cells in experimental groups were treated with a test compound and FM1-43; Cells in positive control were treated with NGF and FM1-43; Cells in negative control were treated with a vehicle and FM1-43. The fluorescence in the positive control were taken as 100%.

[7] = test system: PC 12 cells; assay: Neurite synaptic uptake activity (FM1-43), PC 12; assay type: cell-based; conditions: Rattus norvegicus, NGF positive control taken as 100%, read-out: uptake of dye FM1-43 EC50
Method: as §3, §4

[8] = test system: PC 12 cells; assay: Neurite outgrowth assay, PC 12; assay type: cell-based; conditions: Rattus norvegicus
[9] = molecular target: T3, zinc-mediated β-amyloid aggregation; assay: Anti-amyloid aggregation assay, thioflavin S; assay type: biochemical; conditions: detected by thioflavin S
Method: as §1, §2

[10] = molecular target: T3, zinc-mediated β-amyloid aggregation; assay: Anti-amyloid aggregation assay, CR (Congo red); assay type: biochemical; conditions: detected by CR
Method: as §1, §2

[11] = test system: SH-SY5Y cells; assay: Neurite outgrowth assay, SH-SY5Y; assay type: cell-based; conditions: Homo sapiens
[12] = MTT or SRB assay for cytotoxicity, A549; assay type: cell-based; conditions: human, A549 cells, read-out: cytotoxicity IC50 (grading) A549
Method: (§5) MTT or SRB Assays for Cytotoxicities of HDAC Inhibitors.
(§6) These compounds were assayed for cytotoxicities to the following cells: A549 cells (adenocarcinomic human alveolar basal epithelial cells), HCT-116 cells (human colon carcinoma cells). PANC-1 cells (human pancreatic carcinoma, epithelial-like cell line) and HepG2 cells (human liver hepatocellular carcinoma cell line), neuronal cells PC12 (rat pheochromocytoma cell line) and SH-SY5Y (human neuroblastoma cell line). MTT (3-[4,5-dimethylthiazol-2-yl]2,5-diphenyl-tetrazolium bromide) reduction was collaborated by using trypan blue exclusion assay.

[13] = MTT or SRB assay for cytotoxicity, PANC1; assay type: cell-based; conditions: human, PANC-1 cells, read-out: cytotoxicity IC50 (grading) PANC1
Method: as §5, §6

[14] = MTT or SRB assay for cytotoxicity, HepG2; assay type: cell-based; conditions: human, HepG2 cells, read-out: cytotoxicity IC50 (grading) HepG2
Method: as §5, §6

[15] = MTT or SRB assay for cytotoxicity, HCT116; assay type: cell-based; conditions: human, HCT-116 cells, read-out: cytotoxicity IC50 (grading) HCT116
Method: as §5, §6

Sequence of human histone deacetylases (HDAC) 1 (Q13547 whole entry): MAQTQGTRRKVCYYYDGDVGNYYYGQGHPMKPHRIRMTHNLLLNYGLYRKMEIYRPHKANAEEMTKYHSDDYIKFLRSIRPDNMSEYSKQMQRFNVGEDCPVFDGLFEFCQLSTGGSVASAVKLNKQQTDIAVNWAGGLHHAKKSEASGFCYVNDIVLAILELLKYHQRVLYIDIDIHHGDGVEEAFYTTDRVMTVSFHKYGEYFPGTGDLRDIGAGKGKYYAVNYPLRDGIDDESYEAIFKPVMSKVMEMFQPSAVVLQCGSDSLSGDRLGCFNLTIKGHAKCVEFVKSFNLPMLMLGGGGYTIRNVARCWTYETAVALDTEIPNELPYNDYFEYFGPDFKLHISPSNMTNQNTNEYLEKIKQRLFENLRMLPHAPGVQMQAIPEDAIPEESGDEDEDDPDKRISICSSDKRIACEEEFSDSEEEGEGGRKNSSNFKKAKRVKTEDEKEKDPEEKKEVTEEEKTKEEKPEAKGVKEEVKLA

SMILES | IC50 [1] [µM] | IC50 [2] [µM] | IC50 [3] [µM] | selective inhibitions on HDAC6 [3] | IC50 [4] [µM] | learning performance in rotarod test [5] | EC50 [6] [µM] | EC50 [7] [µM] | EC50 [8] [µM] | IC50 [9] [µM] | IC50 [10] [µM] | EC50 [11] [µM] | melting point | IC50 [12] [µM] | IC50 [13] [µM] | IC50 [14] [µM] | IC50 [15] [µM]
Cc1nc2cc(/C=C/C(=O)NO)ccc2c(=O)n1CCc1ccccc1 [Compound 1f, (2E)-3-(3,4-dihydro-2-methyl-4-oxo-3-phenethylquinazolin-7-yl)-N-hydroxyacrylamide] | 1 to 10 | 1 to 10 | < 0.1 | selective inhibitions on HDAC6 | 11.7 | improved learning performance | 6.77 ± 0.96 | 6.49 ± 0.78 | 6.49 ± 0.78 | 9.5 | 43.1 | 6.77 ± 0.96 |  |  |  |  | 
O=C(/C=C/c1ccc2c(=O)n(CCc3ccccc3)cnc2c1)NO [Compound 1h, (2E)-3-(3,4-dihydro-4-oxo-3-phenethylquinazolin-7-yl)-N-hydroxyacrylamide] | 0.1 to 1 | 0.1 to 1 | < 0.1 | selective inhibitions on HDAC6 | 35 |  | 4.93 ± 1.34 | 14.5 ± 1.47 | 14.5 ± 1.47 | 5.5 | 14.6 | 4.93 ± 1.34 | 197 to 199 °C (dec.) |  |  |  | 
Cc1nc2cc(/C=C/C(=O)NO)ccc2c(=O)n1CCc1c[nH]c2ccccc12 [Compound 1g, (2E)-3-(3-(2-(1H-indol-3-yl)ethyl)-3,4-dihydro-2-methyl-4-oxoquinazolin-7-yl)-N-hydroxyacrylamide] | 0.1 to 1 | 1 to 10 | < 0.1 | selective inhibitions on HDAC6 | 11.1 |  |  |  |  | 7.4 | 15.5 |  |  |  |  |  | 
Cc1nc2cc(/C=C/C(=O)Nc3ccccc3N)ccc2c(=O)n1CCc1ccccc1 [Compound 6a, (2E)-N-(2-aminophenyl)-3-(3,4-dihydro-2-methyl-4-oxo-3-phenethylquinazolin-7-yl)acrylamide] | 1 to 10 | > 10 | > 10 |  | 13.8 |  | 8.81 ± 1.04 | 6.59 ± 1.06 | 6.59 ± 1.06 | 10.7 | 30.9 | 8.81 ± 1.04 | 246 to 248 °C (dec.) | ≥ 10 | 1 to 10 | 0.1 to 1 | ≥ 10
Cc1nc2c(/C=C/C(=O)NO)cccc2c(=O)n1-c1ccccc1 [Compound 1d, (2E)-3-(3,4-dihydro-2-methyl-4-oxo-3-phenylquinazolin-8-yl)-N-hydroxyacrylamide] | > 10 | 0.1 to 1 | 0.1 to 1 |  | 11.7 |  | 8.03 ± 0.53 | 7.81 ± 0.65 |  |  | 14.5 |  |  |  |  |  | 
Cc1nc2cc(/C=C/C(=O)NO)ccc2c(=O)n1Cc1ccccc1 [Compound 1e, (2E)-3-(3-benzyl-3,4-dihydro-2-methyl-4-oxoquinazolin-7-yl)-N-hydroxyacrylamide] | 1 to 10 | 1 to 10 | < 0.1 | selective inhibitions on HDAC6 | 10.6 |  | 8.2 ± 0.92 | 8.21 ± 0.37 | 8.21 ± 0.37 | 18.1 | 5.8 | 8.2 ± 0.92 |  |  |  |  | 
Cc1nc2cccc(/C=C/C(=O)NO)c2c(=O)n1-c1ccccc1 [Compound 1a, (2E)-3-(3,4-dihydro-2-methyl-4-oxo-3-phenylquinazolin-5-yl)-N-hydroxyacrylamide] | > 10 | 1 to 10 | < 0.1 |  | 10.1 |  | 14.7 ± 1.58 | 8.15 ± 0.39 |  |  | 30.2 |  |  |  |  |  | 
CCc1nc2cc(/C=C/C(=O)NO)ccc2c(=O)n1CCc1ccccc1 [Compound 1i, (2E)-3-(2-ethyl-3,4-dihydro-4-oxo-3-phenethylquinazolin-7-yl)-N-hydroxyacrylamide] | 1 to 10 | 1 to 10 | < 0.1 | selective inhibitions on HDAC6 | 3.9 |  | 0.88 ± 0.45 | 7.21 ± 0.32 | 7.21 ± 0.32 | 6.8 | 5.5 | 0.88 ± 0.45 | 209 to 211 °C | ≥ 10 | ≥ 10 | 1 to 10 | ≥ 10
Cc1nc2ccc(/C=C/C(=O)NO)cc2c(=O)n1-c1ccccc1 [Compound 1b, (2E)-3-(3,4-dihydro-2-methyl-4-oxo-3-phenylquinazolin-6-yl)-N-hydroxyacrylamide] | 1 to 10 | 0.1 to 1 | < 0.1 | selective inhibitions on HDAC6 | 10.1 |  |  |  |  |  | 4.8 |  |  |  |  |  | 
